According to patent US20020142942A1, “Method for treating premenstrual or late luteal phase syndrome” (Merck & Co. Inc., priority 1997, published 2002):

Columns and labels:
[1] = tested on: foot tapping in gerbils induced by central injection of an NK1 agonist; experiment: Gerbil foot-tapping assay; format: in vivo, Mongolian gerbils; conditions: i.v.
From the text: Gerbil Foot-Tapping Assay CNS penetrant NK-1 receptor antagonists for use in the present invention can be identified by their ability to inhibit foot tapping in gerbils induced by anxiogenic agents (such as pentagastrin) or central infusion of NK-1 receptor agonists such as GR73632, or caused by aversive stimulation such as foot shock or single housing, based on the method of Rupniak & Williams, Eur. J. Pharmacol., 1994, 265, 179. Male or female Mongolian gerbils (35-70 g) are anaesthetised by inhalation of an isoflurane/oxygen mixture to permit exposure of the jugular vein in order to permit administration of test compounds or vehicle in an injection volume of 5 ml/kg i.v. Alternatively, test compounds may be administered orally or by subcutaneous or intraperitoneal routes. The wound is closed and a second skin incision is made in the midline of the scalp to expose the skull. […] The duration and/or intensity of hind foot tapping is then recorded continuously for 5 minutes. Alternatively, the ability of test compounds to inhibit foot tapping evoked by aversive stimulation, such as foot shock or single housing, may be studied using a similar method of quantification.

[2] = tested on: cisplatin-induced emesis in ferrets; experiment: Ferret emesis assay; format: in vivo; conditions: p.o.
Experimental: Ferret Emesis Assay Individually housed male ferrets (1.0-2.5 kg) are dosed orally by gavage with test compound. Ten minutes later they are fed with approximately 100 g of tinned cat food. At 60 minutes following oral dosing, cisplatin (10 mg(kg) is given i.v. via a jugular vein catheter inserted under a brief period of halothane anaesthesia. The catheter is then removed, the jugular vein ligated and the skin incision closed. The ferrets recover rapidly from the anaesthetic and are mobile within 10-20 minutes. The animals are observed continuously during recovery from the anaesthetic and for 4 hours following the cisplatin injection, after which time the animals are killed humanely. The numbers of retches and vomits occurring during the 4 hours after cisplatin administration are recorded by trained observers.

[3] = tested on: distress vocalisations in guinea-pig pups; experiment: Separation-induced vocalisation assay; format: in vivo, guinea-pigs; conditions: p.o.
From the text: Separation-Induced Vocalisation Assay Male and female guinea-pigs pups are housed in family groups with their mothers and littermates throughout the study. Experiments are commenced […] when the pups are 2 weeks old. Before entering an experiment, the pups are screened to ensure that a vigorous vocalisation response is reproducibly elicited following maternal separation. The pups are placed individually in an observation cage (55 cm×39 cm×19 cm) in a room physically isolated from the home cage for 15 minutes and the duration of vocalisation during this baseline period is recorded. Only animals which vocalise for longer than 5 minutes are employed for drug challenge studies (approximately 50% of available pups may fail to reach this criterion). On test days each pup receives an oral dose or a s.c. or i.p. injection of test compound or vehicle and is then immediately returned to the home cage with its mother and siblings for 30 minutes to 60 minutes (or for up to 4 hours following an oral dose, dependant upon the oral pharmacokinetics of the test compound) before social isolation for 15 minutes as described above. The duration of vocalisation on drug treatment days is expressed as a percentage of the pre-treatment baseline value for each animal. The same subjects are retested once weekly for up to 6 weeks. Between 6 and 8 animals receive each test compound at each dose tested. […]

[4] = tested on: women with premenstrual syndrome; experiment: Double-blind, placebo-controlled study of mood and appetite disturbances associated with premenstrual syndrome; format: in vivo; conditions: 30 mg/day, compared with placebo, Hamilton Depression Scale and PMS/LLPD Symptom Rating Scale
Experimental: Double-Blind, Placebo-Controlled Study to Determine the Effect of a Substance P Antagonist on Mood and Appetite Disturbances Associated with Premenstrual Syndrome in Women.
Approximately twenty women receive either the substance P receptor antagonist 2-(R)-(1-(R)-(3,5-bis(trifluoromethyl)phenyl)ethoxy)-3-(S)-(4-fluorophenyl)-4-(3-(5-oxo-1H,4H-1,2,4-triazolo)methyl-morpholine (30 mg/day) or a placebo starting approximately two weeks prior to their expected menstrual period. Each subject participates in 6 randomized test periods; in 3 of the test periods, each is given the substance P antagonist and in the other 3 test periods, is given a placebo. Mood is assessed 1-3 days before the onset of menses, using the Hamilton Depression Scale and the PMS/LLPD Symptom Rating Scale, for mood and appetite symptoms. Hamilton, N., Journal of Neurosurgery and Psychiatry, 23:56-62 (1960); Steiner, M. et al., Acta Psychiatrica Scandinavia, 62:177-190 (1980). Food intake is measured through the use of self-reports (when subjects were out-patients), and directly (while subjects were inpatients), during one drug and one placebo period; subjects also are weighed. The results between the test periods are compared and the results for each subject are evaluated.

gerbil foot-tapping (5 mins.): IC50 ([1]; 5 mins.): IC50 = 0.36 mg/kg i.v.
gerbil foot-tapping (24 hrs.): IC50 ([1]; 24 hrs.): IC50 = 0.33 mg/kg i.v.
SMILES: C[C@@H](O[C@H]1OCCN(Cc2n[nH]c(=O)[nH]2)[C@H]1c1ccc(F)cc1)c1cc(C(F)(F)F)cc(C(F)(F)F)c1 [2-(R)-(1-(R)-(3,5-bis(trifluoromethyl)-phenyl)-ethoxy)-3-(S)-(4-fluorophenyl)-4-(3-(5-oxo-1H,4H-1,2,4-triazolo)methyl)-morpholine]
ferret emesis: ID90 [2]: ID90 = <3 mg/kg p.o.
guinea-pig vocalisation (4 hr. pre-treatment): ID50 [3]: ID50 = 0.73 mg/kg p.o.
effect in decreasing depression and other negative mood states [4]: positive effect with respect to placebo
